Like-named read-outs stand apart in the source and are kept apart here.

This is an account of results in article PMC5064002, “Sintokamide A Is a Novel Antagonist of Androgen Receptor That Uniquely Binds Activation Function-1 in Its Amino-terminal Domain” (The Journal of Biological Chemistry, 2016).

In one test the test system is Tau5. Details: method as in PMID 27356095. The settings on record: contact to residues 353–364, 397–407 and 433–466; cited from earlier work.
Test [1] concerns the target T1, AR (Homo sapiens, UniProt P10275, T878A).
T1 construct: endogenous in cells; host or cells: LNCaP
T1 sequence (P10275 1-920 T878A): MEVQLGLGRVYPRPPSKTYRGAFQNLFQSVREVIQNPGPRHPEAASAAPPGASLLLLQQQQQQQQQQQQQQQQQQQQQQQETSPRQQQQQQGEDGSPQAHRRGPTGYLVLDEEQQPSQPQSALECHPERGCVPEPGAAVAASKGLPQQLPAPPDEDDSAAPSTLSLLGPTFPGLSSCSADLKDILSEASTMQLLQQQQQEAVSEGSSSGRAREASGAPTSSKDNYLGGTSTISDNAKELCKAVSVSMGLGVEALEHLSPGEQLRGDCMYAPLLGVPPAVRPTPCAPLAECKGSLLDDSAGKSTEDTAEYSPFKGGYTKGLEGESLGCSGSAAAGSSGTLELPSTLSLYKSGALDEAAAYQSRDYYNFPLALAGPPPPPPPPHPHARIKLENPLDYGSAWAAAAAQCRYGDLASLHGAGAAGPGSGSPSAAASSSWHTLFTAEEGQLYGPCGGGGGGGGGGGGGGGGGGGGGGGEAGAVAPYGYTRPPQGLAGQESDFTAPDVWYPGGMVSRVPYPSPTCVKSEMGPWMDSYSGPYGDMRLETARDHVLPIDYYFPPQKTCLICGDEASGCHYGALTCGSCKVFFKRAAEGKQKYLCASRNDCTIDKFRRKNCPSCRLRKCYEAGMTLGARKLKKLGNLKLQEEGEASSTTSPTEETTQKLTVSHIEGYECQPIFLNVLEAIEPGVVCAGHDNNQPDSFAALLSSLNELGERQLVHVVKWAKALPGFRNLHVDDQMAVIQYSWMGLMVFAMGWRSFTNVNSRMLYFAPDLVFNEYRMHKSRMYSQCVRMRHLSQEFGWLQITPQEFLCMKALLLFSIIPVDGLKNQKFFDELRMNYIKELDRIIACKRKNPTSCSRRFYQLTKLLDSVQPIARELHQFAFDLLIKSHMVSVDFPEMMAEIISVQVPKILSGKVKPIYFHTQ
Details: method as in PMID 23722902. Particulars: cited from earlier work.

For another test, the target named is T2, endogenous FL-AR (Homo sapiens, UniProt P10275, T878A).
T2 construct: endogenous in cells; host or cells: LNCaP
T2 sequence (P10275 1-920 T878A): T1 sequence (P10275 1-920 T878A)
In words: Binding assay of click chemistry probes to full-length AR in LNCaP cells. Particulars: 20 μM LPY probes or 25 μM EPI-053, click chemistry, Western blot. How it is done: LNCaP cells were treated for 24 h with 20 μM modified SINT1 (LPY19, -30, and -31) or the vehicle dimethyl sulfoxide (DMSO). 25 μM EPI-053 (a modified EPI-001 analog) was used as positive control ([5]). Proteins were extracted with lysis buffer and subjected to click chemistry conditions for 3 h at 25 °C in buffer containing 0.1% SDS, 5% t-butyl alcohol, 100 μM tris[(1-benzyl-1H-1,2,3-triazol-4-yl)methyl]amine (Sigma), 1 mM tris(2-carboxyethyl)phosphine, 100 μM biotin-azide reagent, and 1 mM CuSO4. Samples were dialyzed in 50 mM HEPES, pH 8.0, 150 mM NaCl, 0.1% SDS, and 1% Triton X-100 to remove excess biotin-azide reagent. Biotinylated soluble receptors were captured with streptavidin-agarose resin. Protein-SINT1 complexes were separated by 10% SDS-PAGE and subjected to Western blotting analysis using AR-N20 (1:1000) and biotin (1:1000) antibodies. Proteins were visualized using ECL detection reagent (Amersham Biosciences).
To reveal whether SINT1 binds to endogenous AR, LNCaP cells were incubated with modified SINT1 click chemistry probes (LPY19, LPY30, and LPY31 shown in Fig. 2A). The EPI-002 click chemistry probe EPI-053 was used as a positive control ([5]). […] LNCaP cells were incubated overnight with these probes prior to click chemistry to add biotin to each click chemistry probe (see schema in Fig. 2B, right). Cell lysates were used for immunoprecipitation with streptavidin to isolate those proteins bound to biotinylated probes. Immunocomplexes were split with one aliquot used for Western blotting analysis using an antibody to biotin (Fig. 2B, left) and the other aliquot for Western blotting analysis using an antibody to AR (Fig. 2B, middle). […] Consistent with these biotin bands corresponding to AR, the AR was immunoprecipitated with streptavidin only in those immunocomplexes that were both positive for biotin (Fig. 2B) and biologically active against AR transcriptional activity (EPI-053, LPY30, and LPY31).

For test [2], the target named is T3, Histidine-tagged AR AF-1 recombinant protein (Homo sapiens, UniProt P10275).
T3 construct: made in house
T3 sequence (P10275 142-485): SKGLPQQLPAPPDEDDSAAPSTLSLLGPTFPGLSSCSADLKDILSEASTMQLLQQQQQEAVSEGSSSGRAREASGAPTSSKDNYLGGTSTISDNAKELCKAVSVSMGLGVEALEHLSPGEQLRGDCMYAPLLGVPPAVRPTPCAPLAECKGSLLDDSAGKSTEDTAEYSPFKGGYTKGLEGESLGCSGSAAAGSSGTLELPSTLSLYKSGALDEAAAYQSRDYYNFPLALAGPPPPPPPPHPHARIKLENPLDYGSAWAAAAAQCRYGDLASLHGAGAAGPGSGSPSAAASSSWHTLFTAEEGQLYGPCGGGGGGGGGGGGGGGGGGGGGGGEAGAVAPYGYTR
As to the kind of experiment: Binding assay of click chemistry probes to recombinant AR AF-1. The settings on record: cell-free, AF1-His tag, 1:10 molar ratio, 37 °C 3 h. How it is done: Histidine-tagged AR AF-1 recombinant protein was expressed and purified as described ([5]). The binding reaction was carried out by mixing AR AF-1 protein with alkyne-containing LPY probes or DMSO at a 1:10 molar ratio and incubated in buffer containing 10 mM HEPES, pH 7.9, and 100 mM NaCl at 37 °C for 3 h. LPY probes were labeled with biotin by copper-catalyzed click chemistry reaction at 25 °C for 1 h ([5]). Samples were resolved by 10% SDS-PAGE, and Western blotting was performed to detect biotin and histidine-tagged AR AF-1 using IRDye® 680LT streptavidin (1:5000) and anti-His (1:1000) antibody, respectively.
Therefore, we next evaluated whether SINT1 binds the AF-1 region in AR NTD. Purified recombinant AF-1 protein (AF1-His tag) was incubated under cell-free conditions with LPY19, LPY30, and LPY31 prior to click chemistry to add a biotin to the LPY probe (see schema in Fig. 2C, right).

The target of test [3] is T1, AR. In words: AR transcriptional activity of SINT1 click chemistry probes, PSA (6.1 kb)-luciferase in LNCaP cells. The settings on record: for biological activity measured using an AR-driven reporter gene construct: 40 μM LPY19, 20 μM LPY30 and LPY31. The format is cell-based. How it is done: FIGURE 2. SINT1 binds endogenous AR in living cells to inhibit transactivation of AR NTD. A, chemical structures of EPI-002, EPI-053, LPY19, LPY30, LPY31, and SINT1 (left). The effect of SINT1 probes in AR transcriptional activity was tested in LNCaP cells transiently transfected with PSA (6.1 kb)-luciferase and exposed for 1 h to 40 μM LPY19 and 20 μM LPY30 and LPY31 before induction with 1 nM […] for 48 h. Error bars represent the mean ± S.E. of n = 3 independent experiments with triplicate wells (right). B, binding of SINT1 click chemistry analogs to FL-AR in cells. LNCaP cells were exposed to modified SINT1 (LPY19, -30, and -31), EPI-053, or DMSO vehicle overnight prior to preparing whole cell lysates for click chemistry reactions. Biotinylated SINT1 or EPI probes bound to proteins were captured with streptavidin-agarose resin prior to separation by 10% SDS-PAGE and subjected to Western blotting analysis with antibodies directed to either biotin (left) or AR (middle). Red boxes highlight where AR migrates on the gel. Right, schema of experiment. […] Right, schema of experiment.

Test [4] deals with T4, progesterone receptor (PR)-β (Homo sapiens, UniProt P06401).
T4 construct: expressed in transfected cells; host or cells: LNCaP
T4 sequence (P06401 1-933): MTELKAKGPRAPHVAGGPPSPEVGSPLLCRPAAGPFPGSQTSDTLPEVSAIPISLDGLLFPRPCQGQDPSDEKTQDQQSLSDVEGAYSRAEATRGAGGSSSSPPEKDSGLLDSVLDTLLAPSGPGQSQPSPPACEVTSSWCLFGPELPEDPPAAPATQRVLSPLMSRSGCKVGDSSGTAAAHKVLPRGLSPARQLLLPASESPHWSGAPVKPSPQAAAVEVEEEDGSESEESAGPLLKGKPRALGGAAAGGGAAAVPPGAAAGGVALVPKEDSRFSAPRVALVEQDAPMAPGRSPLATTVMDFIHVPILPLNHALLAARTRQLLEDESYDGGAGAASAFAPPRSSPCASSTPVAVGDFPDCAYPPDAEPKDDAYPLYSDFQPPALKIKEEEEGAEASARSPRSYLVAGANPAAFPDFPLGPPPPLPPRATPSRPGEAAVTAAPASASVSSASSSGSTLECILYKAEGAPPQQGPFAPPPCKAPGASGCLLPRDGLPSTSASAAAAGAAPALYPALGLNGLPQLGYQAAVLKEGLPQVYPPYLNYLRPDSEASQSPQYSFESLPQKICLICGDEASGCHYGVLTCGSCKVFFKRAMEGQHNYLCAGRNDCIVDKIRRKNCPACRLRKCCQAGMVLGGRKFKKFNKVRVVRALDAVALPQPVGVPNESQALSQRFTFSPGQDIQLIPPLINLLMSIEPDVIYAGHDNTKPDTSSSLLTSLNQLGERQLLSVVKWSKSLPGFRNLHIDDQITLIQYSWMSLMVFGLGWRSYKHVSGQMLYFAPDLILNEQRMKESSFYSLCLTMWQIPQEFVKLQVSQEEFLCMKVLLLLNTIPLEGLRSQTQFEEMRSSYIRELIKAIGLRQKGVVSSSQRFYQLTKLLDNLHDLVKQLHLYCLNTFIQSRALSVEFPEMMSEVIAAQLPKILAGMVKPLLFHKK
In words: Steroid receptor specificity: PRE-luciferase reporter in LNCaP cells. Particulars: 10 μM compound, 10 nM 4-pregnene-3,20-dione, 48 h. It is filed as cell-based. How it is done:
LNCaP cells were transfected with the reporter plasmid PSA(6.1kb)-luciferase, PRE-luciferase, or GRE-luciferase and expression vector for progesterone receptor (PR)-β or glucocorticoid receptor (GR)-α in serum-free, phenol red-free medium using Lipofectin (Invitrogen). […] After 48 h of treatment, cells were lysed and analyzed for luciferase activities.
FIGURE 1. […] A, LNCaP cells were transfected with PSA (6.1 kb)-luciferase, PRE-luciferase, or GRE-luciferase reporters and expression vector for PRβ or GRα. […] Error bars represent mean percentage of vehicle activity ±S.E. of at least three independent experiments with triplicate wells. SINT1, 10 μM; […]; ***, p < 0.001. […]. Error bars represents mean ± S.E. of three technical replicates. […] DAPI staining indicates the location of the nucleus. Scale bars, 20 μm.

The subject of the next test is LNCaP95 cells. In words: Cell proliferation (BrdU incorporation), LNCaP95. Particulars: 48 h. It is filed as cell-based. How it is done:
Cells were pulse-labeled with 10 μM BrdU for 2 h. Cells were fixed, and BrdU-labeled cells were identified with anti-BrdU-peroxidase (Roche Applied Science). BrdU incorporation was measured at 570 nm using a VersaMax ELISA microplate reader (Molecular Devices). At least three independent experiments with six technical replicates were analyzed, and average values are indicated.

The mark [5] stands for this setting: LNCaP, PSA (6.1 kb)-luciferase, 1 nM R1881 48 h.

Turning to `CC(C)(c1ccc(OCC(O)CO)cc1)c1ccc(OCC(O)CCl)cc1` (stereo not drawn) [EPI-001], the “binding to Tau5 by NMR spectroscopy” value in the test on Tau5 is recorded as “binds in a pocket in Tau5”.
Consider `C#CCOC[C@H](O)COc1ccc(C(C)(C)c2ccc(OC[C@H](O)CCl)cc2)cc1` [EPI-053, reference compound], for which, on AR [1], the “biological activity measured using an AR-driven reporter gene construct” value (shortened to “biological activity measured”) was “had biological activity”. Also, the “binding to endogenous FL-AR (biotin band corresponding to AR after streptavidin capture)” value (“binding to endogenous FL-AR” below) at endogenous FL-AR is recorded as “a band corresponding to AR”.
For `C#CCCC(=O)N[C@H](CC(C)C)C(=O)N1C(=O)C=C(OC)[C@@H]1CC(C)C` [LPY19], the “binding of biotinylated probe to AF-1” value in test [2] is “no binding”. Also, on AR [3] (20 μM), the “activity at 20 μM, AR-driven reporter” value was “inactive”. For the same molecule, the IC50 on AR [3] (LNCaP, PSA (6.1 kb)-luciferase, 1 nM R1881 48 h, read-out: IC50, AR-driven reporter gene construct) was around 40 µM. In addition, the “biological activity measured” value on AR [3] (setting [5]) is given as “very weak activity”. The “binding to endogenous FL-AR” value on endogenous FL-AR is “not”.
Take `C#CCCC(=O)NC(CCC(Cl)(Cl)Cl)C(=O)N1C(=O)C=C(OC)C1CCC(Cl)(Cl)Cl` (stereo not shown) [LPY30]: in test [2], the “binding of biotinylated probe to AF-1” value is given as “binding”. The “biological activity measured” value at AR [3] (setting [5]) is listed as “had biological activity”. For the same molecule, at endogenous FL-AR, the “binding to endogenous FL-AR” value was “a band corresponding to AR”.
Turning to `CC(O)(CS(=O)(=O)c1ccc(F)cc1)C(=O)Nc1ccc(C#N)c(C(F)(F)F)c1` (stereo not shown) [bicalutamide, reference compound], in test [4], the “PR transcriptional activity (PRE-luciferase)” value was “inhibited”. For the same molecule, the “proliferation of LNCaP95 cells” value in the test on LNCaP95 cells was “no effect”.
